In patent US12617779B2, “Self degradation-type CDK9 inhibitor prodrug and liposome encapsulating same” (Sumitomo Pharma Co., Ltd., priority 2021, dated 2026):

Experiment: Evaluation of conversion rate to active form in buffer solution (Experimental Example 1)
Assay type: physicochemical
Conditions: for Production rate of Alvocidib / Residual rate: 37° C., 25 umol/L in buffer solution
Summary of the method: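 Conversion to Alvocidib and loss of parent were followed by HPLC over 3 h (samples at 0, 0.5, 1, 2, 3 h). Incubations used 25 umol/L compound at 37 °C across pH 5.0–7.4, in 50 mM citrate below pH 6.0 and 50 mM phosphate from pH 6.0 upward.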

CN1CC[C@H](c2c(OC(=O)N(CCC(F)(F)F)CC3CCCCN3)cc(O)c3c(=O)cc(-c4ccccc4Cl)oc23)[C@H](O)C1 (stereo partly drawn) [Example 13, 2-(2-chlorophenyl)-5-hydroxy-8-[(3S,4R)-3-hydroxy-1-methylpiperidin-4-yl]-4-oxo-4H-1-benzopyran-7-yl [(piperidin-2-yl)methyl](3,3,3-trifluoropropyl)carbamate]
Production rate of Alvocidib (pH5.0, 0 hr): 2.1%
Residual rate (pH5.0, 0 hr): 82.1%
Stability in buffer solution at pH 5 (pH 5, 37° C., up to 2 or 3 hours): stable
Production rate of Alvocidib (pH5.0, 0.5 hr): 3.9%
Residual rate (pH5.0, 0.5 hr): 81.7%
Production rate of Alvocidib (pH5.0, 1 hr): 4.9%
Residual rate (pH5.0, 1 hr): 80.3%
Production rate of Alvocidib (pH5.0, 2 hr): 6.3%
Residual rate (pH5.0, 2 hr): 78.0%
Production rate of Alvocidib (pH5.0, 3 hr): 8.0%
Residual rate (pH5.0, 3 hr): 76.1%
Production rate of Alvocidib (pH5.5, 0 hr): 2.5%
Residual rate (pH5.5, 0 hr): 82.7%
Production rate of Alvocidib (pH5.5, 0.5 hr): 5.5%
Residual rate (pH5.5, 0.5 hr): 79.2%
Production rate of Alvocidib (pH5.5, 1 hr): 8.6%
Residual rate (pH5.5, 1 hr): 74.6%
Production rate of Alvocidib (pH5.5, 2 hr): 13.9%
Residual rate (pH5.5, 2 hr): 67.1%
Production rate of Alvocidib (pH5.5, 3 hr): 17.7%
Residual rate (pH5.5, 3 hr): 61.8%
Production rate of Alvocidib (pH6.0, 0 hr): 3.3%
Residual rate (pH6.0, 0 hr): 81.3%
Production rate of Alvocidib (pH6.0, 0.5 hr): 11.6%
Residual rate (pH6.0, 0.5 hr): 69.8%
Production rate of Alvocidib (pH6.0, 1 hr): 21.6%
Residual rate (pH6.0, 1 hr): 56.6%
Production rate of Alvocidib (pH6.0, 2 hr): 33.3%
Residual rate (pH6.0, 2 hr): 40.2%
Production rate of Alvocidib (pH6.0, 3 hr): 42.5%
Residual rate (pH6.0, 3 hr): 28.3%
Production rate of Alvocidib (pH6.5, 0 hr): 3.7%
Residual rate (pH6.5, 0 hr): 81.4%
Production rate of Alvocidib (pH6.5, 0.5 hr): 27.5%
Residual rate (pH6.5, 0.5 hr): 47.7%
Production rate of Alvocidib (pH6.5, 1 hr): 47.7%
Residual rate (pH6.5, 1 hr): 22.2%
Production rate of Alvocidib (pH6.5, 2 hr): 56.7%
Residual rate (pH6.5, 2 hr): 9.9%
Production rate of Alvocidib (pH6.5, 3 hr): 65.5%
Residual rate (pH6.5, 3 hr): 2.8%
Production rate of Alvocidib (pH7.0, 0 hr): 5.4%
Residual rate (pH7.0, 0 hr): 78.3%
Production rate of Alvocidib (pH7.0, 0.5 hr): 49.3%
Residual rate (pH7.0, 0.5 hr): 18.7%
Production rate of Alvocidib (pH7.0, 1 hr): 65.9%
Residual rate (pH7.0, 1 hr): 2.7%
Production rate of Alvocidib (pH7.0, 2 hr): 65.1%
Residual rate (pH7.0, 2 hr): 0.4%
Production rate of Alvocidib (pH7.0, 3 hr): 69.9%
Residual rate (pH7.0, 3 hr): 0.0%
Production rate of Alvocidib (pH7.4, 0 hr): 9.2%
Residual rate (pH7.4, 0 hr): 68.5%
Conversion to Alvocidib at pH 7.4 (pH 7.4, 37° C., up to 3 hours): rapidly converted to Alvocidib
Production rate of Alvocidib (pH7.4, 0.5 hr): 65.8%
Residual rate (pH7.4, 0.5 hr): 2.2%
Production rate of Alvocidib (pH7.4, 1 hr): 65.5%
Residual rate (pH7.4, 1 hr): 0.2%
Production rate of Alvocidib (pH7.4, 2 hr): 68.6%
Residual rate (pH7.4, 2 hr): 0.0%
Production rate of Alvocidib (pH7.4, 3 hr): 66.1%
Residual rate (pH7.4, 3 hr): 0.0%
